Measurements reported in patent US20050148034A1, “Methods for identification of modulators of angiogenesis, compounds discovered thereby, and methods of treatment using the compounds” (priority 2002, published 2005).

Legend:
[1] = tested on: human umbilical cord vessel rings; assay: Human angiogenesis assay (umbilical artery vessel rings in Matrigel); assay type: cell-based; settings: for Microvessel Growth (% Inhibition): vs 0.1% DMSO, three weeks, average of two rings
Text: Fresh human umbilical cords were collected by trained medical personnel under fill donor informed consent from local hospitals. The cords were transported and treated within three hours. Umbilical cords and vessel lumens were rinsed with chilled basal nutrient medium. The artery was removed from the cord using mechanical means, forceps and small surgical scissors in an aseptic field. The vessel was cleaned of connective tissue and vessel rings were cut cross-wise in a length of 1 mm. The rings were placed into EGM-2 medium (Clonetics Corp.) in a 50 ml conical bottom tube and stored at 4° C. Six-well tissue culture plates were covered with […] of Matrigel and allowed to gel for 30-45 min at 37° C., under 5% CO2. The vessel rings were rinsed in EGM-2 medium and placed on the Matrigel-coated wells, covered with additional 250 μl Matrigel, and allowed to gel for 30-45 min at 37° C. (see FIG. 6). The vessels were cultured for 24 hours in 4 ml of EGM-2 to allow the tissue to adapt to its new environment. After 24 hours incubation, the rings were treated either with 0.1% DMSO as control, or different concentrations of compounds (thalidomide or CC4047). Culture medium was changed twice per week for total of three weeks.
The effects of compounds on cultured vessel rings were compared with the effect of DMSO on vessel rings. The results were analyzed using Image-Pro® Plus software (MediaCybernetics, Inc. Carlsbad, Calif.).
These experiments were done in duplicates and the results are the average of two rings in same experiment. A different concentration of Fumagillin is used as positive control in this experiment.

[2] = tested on: embryonic-like stem cells derived from placenta; assay: Total vessel area/field and branching/bifurcation of cultured placental embryonic-like stem cells (Table 4); assay type: cell-based, human; set-up: key to Branching/Bifurcation (+/−): +: a branch or bifurcation was observed; −: no branch or bifurcation was observed
Protocol: In another experiment, the results of which are summarized in Table 4, embryonic-like stem cells derived from placenta were cultured, using the culture conditions described above, and in the presence of EGCF, DMSO, Thalomid™, Actimid™ or Revimid™.
A “+” means that a branch or bifurcation was observed and a “−” means that no branch or bifurcation was observed. […] See also FIGS. 3A, 3B

O=C1CCC(N2C(=O)c3ccccc3C2=O)C(=O)N1 (centres unmarked) [Thalomid, thalidomide, reference compound]
Microvessel Growth (% Inhibition) ([1]; 0..1 μM): 40 % Inhibition
Microvessel Growth (% Inhibition) ([1]; 1 μM): 81.4 % Inhibition
Microvessel Growth (% Inhibition) ([1]; 10 μM): 100 % Inhibition
formation of microvessel outgrowth ([1]; compared with DMSO treated samples): inhibited the formation of microvessel outgrowth in a dose dependent manner
need of microsomes for activity ([1]; human ring assay, compared with rat ring results): no need for either human or rabbit microsome
Branching/Bifurcation (+/−) ([2]; 1 μg/ml): −
Total Vessel Area/Field (% Coverage) ([2]; 1 μg/ml): 24.1 +/− 4.4 % Coverage
Branching/Bifurcation (+/−) ([2]; 10 μg/ml): −
Total Vessel Area/Field (% Coverage) ([2]; 10 μg/ml): 14.8 +/− 7.2 % Coverage
branching and/or bifurcation exhibited by the cells ([2]; summary of Table 4): decreases the branching and/or bifurcation exhibited by the cells
total vessel area/field covered by the cells ([2]; summary of Table 4): decrease in the total vessel area/field covered by the cells
